Patent US12421229B2, “Hydropyrido[1,2-α]pyrazine compounds for the treatment of autoimmune disease” (Hoffmann-La Roche Inc., priority 2019, dated 2025)

Tests used:
Type in all cases: in vitro ADME
CYP2C9 = molecular target: T1, CYP2C9 (Homo sapiens, UniProt P11712); test: CYP inhibition assay in human liver microsome, CYP2C9; settings: percentage inhibition, substrate Diclofenac 5 μM
T1 construct: tissue BD-Gentest 452117; host or cells: human liver microsomes
Protocol: (§1) This is a high throughput screening assay used for assessment of reversible inhibition of CYP2C9, CYP2D6, and CYP3A4 activity of test compounds in human liver microsome (HLM) in early discovery stage.
(§2) 10 mM DMSO stock solutions of test compounds were diluted in DMSO to generate 2 mM intermediate stock solution. 250 nL of intermediate stock solution were transferred in duplicate into 3 separate 384 well microtitre plates (assay-ready plates). A mixture of HLM and each substrate was made up. 45 μL of HLM substrate mix was then transferred to each well of an assay ready plate and mixed. The negative (solvent) and positive controls (standard inhibitor for each CYP) were included in each assay ready plate. The assay ready plate was warmed to 37° C. in an incubator over 10 minutes. 5 μL pre-warmed NADPH regenerating system was added to each incubation well to start the reaction. Final incubation volume was 50 μL. The assay plate then was placed back in the 37° C. incubator. After incubation (10 minutes for CYP2D6) for 5 minutes, incubates were quenched by addition of 50 μL 100% acetonitrile containing internal standards (400 ng/mL 13C6-4′-OH-Diclofenac, 20 ng/mL D3-Dextrorphan and 20 ng/mL D4-1′OH-Midazolam). The supernatants were collected for RapidFire/MS/MS analysis.
(§3) RapidFire online solid phase extraction/sample injection system (Agilent) coupled with API4000 triple quadrupole mass spectrometer (AB Sciex) were used for sample analysis. The mobile phase composed of acetonitrile and water supplemented with 0.1% formic acid. A C4 solid phase extraction cartridge is used for sample separation. MS detection is achieved in positive ion MRM mode.
(§4) Peak areas for substrate, metabolite and internal standard are determined using the RapidFire integrator software (version 3.6.12009.12296). Peak area ratios (PAR) of metabolite and internal standard (stable-labelled metabolite) are then calculated. The measurement window for each experiment is then defined:
(§5) PAR (0% activity)=average PAR for all incubations containing concentrated inhibitor;
(§6) Par (100% activity)=average PAR for all incubations containing no inhibitor (DMSO controls);
(§7) % Activity (test inhibitor)=[PAR(test inhibitor)−PAR(0% activity)/PAR(100% activity)−PAR(0% activity)];
(§8) % Inhibition (test inhibitor)=100−% Activity (test inhibitor).

CYP3A4 = molecular target: T2, CYP3A4 (Homo sapiens, UniProt P08684); test: CYP inhibition assay in human liver microsome, CYP3A4; settings: percentage inhibition, substrate Midazolam 5 μM
T2 construct: tissue BD-Gentest 452117; host or cells: human liver microsomes
T2 sequence (P08684 whole entry): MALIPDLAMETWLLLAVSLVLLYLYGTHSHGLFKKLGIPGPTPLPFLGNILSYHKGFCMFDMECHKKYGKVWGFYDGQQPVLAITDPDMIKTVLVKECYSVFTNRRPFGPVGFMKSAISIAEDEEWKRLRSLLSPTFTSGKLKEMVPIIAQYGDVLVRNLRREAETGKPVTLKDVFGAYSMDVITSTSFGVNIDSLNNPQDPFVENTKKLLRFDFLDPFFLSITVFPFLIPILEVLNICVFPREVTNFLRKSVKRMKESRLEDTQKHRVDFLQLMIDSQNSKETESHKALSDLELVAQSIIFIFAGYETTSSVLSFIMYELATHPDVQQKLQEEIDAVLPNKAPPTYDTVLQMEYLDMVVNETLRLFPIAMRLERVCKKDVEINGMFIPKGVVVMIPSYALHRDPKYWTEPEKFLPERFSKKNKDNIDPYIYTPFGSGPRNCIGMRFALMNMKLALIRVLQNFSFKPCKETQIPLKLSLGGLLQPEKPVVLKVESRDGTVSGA
Protocol: as §1, §2, §3, §4, §5, §6, §7, §8

CYP2D6 = molecular target: T3, CYP2D6 (Homo sapiens, UniProt P10635); test: CYP inhibition assay in human liver microsome, CYP2D6; settings: percentage inhibition, substrate Dextromethorphan 5 μM
T3 construct: tissue BD-Gentest 452117; host or cells: human liver microsomes
T3 sequence (P10635 whole entry): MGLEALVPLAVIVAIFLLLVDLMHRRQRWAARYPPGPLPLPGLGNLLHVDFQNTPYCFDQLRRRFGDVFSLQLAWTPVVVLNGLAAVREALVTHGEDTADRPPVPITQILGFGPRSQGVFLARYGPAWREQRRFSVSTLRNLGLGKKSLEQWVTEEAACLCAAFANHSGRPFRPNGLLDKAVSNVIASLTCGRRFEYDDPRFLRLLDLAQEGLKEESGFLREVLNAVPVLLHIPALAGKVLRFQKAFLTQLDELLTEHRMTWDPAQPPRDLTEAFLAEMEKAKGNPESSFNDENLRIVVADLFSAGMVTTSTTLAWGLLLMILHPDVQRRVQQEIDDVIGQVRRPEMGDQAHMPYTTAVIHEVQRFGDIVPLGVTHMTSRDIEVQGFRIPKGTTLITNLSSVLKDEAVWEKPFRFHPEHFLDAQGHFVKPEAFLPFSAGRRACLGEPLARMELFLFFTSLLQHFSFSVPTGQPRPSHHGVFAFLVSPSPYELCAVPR
Protocol: as §1, §2, §3, §4, §5, §6, §7, §8

T1 sequence (P11712 whole entry): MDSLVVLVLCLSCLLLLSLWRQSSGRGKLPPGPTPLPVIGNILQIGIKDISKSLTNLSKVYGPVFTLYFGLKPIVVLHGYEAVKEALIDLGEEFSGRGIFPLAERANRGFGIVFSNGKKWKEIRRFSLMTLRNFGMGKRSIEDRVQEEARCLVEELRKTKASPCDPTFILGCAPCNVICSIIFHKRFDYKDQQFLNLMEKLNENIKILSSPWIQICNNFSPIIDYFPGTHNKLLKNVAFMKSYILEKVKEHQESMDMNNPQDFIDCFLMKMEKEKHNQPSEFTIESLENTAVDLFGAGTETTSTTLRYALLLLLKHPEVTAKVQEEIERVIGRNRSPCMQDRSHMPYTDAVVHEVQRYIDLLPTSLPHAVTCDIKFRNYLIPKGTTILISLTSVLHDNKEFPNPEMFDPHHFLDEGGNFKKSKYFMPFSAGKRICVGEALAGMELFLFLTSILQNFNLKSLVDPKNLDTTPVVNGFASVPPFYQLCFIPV

Row | SMILES | CYP (%) 2C9 (CYP2C9) [%] | CYP (%) 3A4 (CYP3A4) [%] | CYP (%) 2D6 (CYP2D6) [%]
1 | C[C@@H]1CN(c2ccc(C#N)c3ncccc23)C[C@@H]2C[C@H](c3ccc(N4CCNCC4)nc3)CCN21 (stereo in doubt) [Example 2, 5-[(4R,8R)-4-methyl-8-(6-piperazin-1-yl-3-pyridyl)-1,3,4,6,7,8,9,9a-octahydropyrido[1,2-a]pyrazin-2-yl]quinoline-8-carbonitrile] | 6 | 38 | −5.5
2 | CO[C@H]1CN(c2ccc([C@@H]3CCN4[C@@H](C3)CN(c3ccc(C#N)c5ncccc35)C[C@H]4C)cn2)C[C@@H]1N [Example 6, 5-[(4R,8R,9aS)-8-[6-[(3S,4S)-3-amino-4-methoxy-pyrrolidin-1-yl]-3-pyridyl]-4-methyl-1,3,4,6,7,8,9,9a-octahydropyrido[1,2-a]pyrazin-2-yl]quinoline-8-carbonitrile] | −8 | 11 | −12.5
3 | C[C@@H]1CN(c2ccc(C#N)c3ncccc23)C[C@@H]2C[C@H](N3CC(c4ccc(N5CCNCC5)cc4)C3)CCN21 [Example 9, 5-[(4R,8R,9aS)-4-methyl-8-[3-(4-piperazin-1-ylphenyl)azetidin-1-yl]-1,3,4,6,7,8,9,9a-octahydropyrido[1,2-a]pyrazin-2-yl]quinoline-8-carbonitrile] | −6.5 | 9.5 | −2
4 | C[C@@H]1CN(c2ccc(C#N)c3ncccc23)C[C@@H]2C[C@@H](Oc3ccc(N4CCNCC4)cn3)CCN21 [Example 11, 5-[(4R,8S,9aS)-4-methyl-8-[(5-piperazin-1-yl-2-pyridyl)oxy]-1,3,4,6,7,8,9,9a-octahydropyrido[1,2-a]pyrazin-2-yl]quinoline-8-carbonitrile] | 0 | 12 | −24.5
5 | CO[C@H]1CN(c2ccc([C@@H]3CCN4[C@@H](C3)CN(c3ccc(C#N)c5ncccc35)C[C@H]4C)cn2)C[C@H]1N [Example 12, 5-[(4R,8R,9aS)-8-[6-[(3R,4S)-3-amino-4-methoxy-pyrrolidin-1-yl]-3-pyridyl]-4-methyl-1,3,4,6,7,8,9,9a-octahydropyrido[1,2-a]pyrazin-2-yl]quinoline-8-carbonitrile] | 14.5 | 37.5 | 0
6 | CO[C@@H]1CN(c2ccc([C@@H]3CCN4[C@@H](C3)CN(c3ccc(C#N)c5ncccc35)C[C@H]4C)cn2)C[C@H]1N [Example 14, 5-[(4R,8R,9aS)-8-[6-[(3R,4R)-3-amino-4-methoxy-pyrrolidin-1-yl]-3-pyridyl]-4-methyl-1,3,4,6,7,8,9,9a-octahydropyrido[1,2-a]pyrazin-2-yl]quinoline-8-carbonitrile] | −1 | 19.5 | −0.5
7 | C[C@@H]1CN(c2ccc(C#N)c3ncccc23)C[C@@H]2C[C@H](c3ccc(N4C[C@@H](N)[C@@H](F)C4)nc3)CCN21 [Example 19, 5-[(4R,8R,9aS)-8-[6-[(3R,4S)-3-amino-4-fluoro-pyrrolidin-1-yl]-3-pyridyl]-4-methyl-1,3,4,6,7,8,9,9a-octahydropyrido[1,2-a]pyrazin-2-yl]quinoline-8-carbonitrile] | −3.5 | 30 | −6
8 | C[C@@H]1CN(c2ccc(C#N)c3ncccc23)C[C@@H]2C[C@H](Nc3ccc(C[C@@H]4CNCCO4)cc3)CCN21 [Example 21, 5-[(4R,8R,9aS)-4-methyl-8-[4-[[(2R)-morpholin-2-yl]methyl]anilino]-1,3,4,6,7,8,9,9a-octahydropyrido[1,2-a]pyrazin-2-yl]quinoline-8-carbonitrile] | 3 | 15.5 | 9
9 | C[C@@H]1CN(c2ccc(C#N)c3ncccc23)C[C@@H]2C[C@H](c3ccc([C@@H]4CNCCO4)cc3)CCN21 [Example 27, 5-[(4R,8R,9aS)-4-methyl-8-[4-[(2R)-morpholin-2-yl]phenyl]-1,3,4,6,7,8,9,9a-octahydropyrido[1,2-a]pyrazin-2-yl]quinoline-8-carbonitrile] | 4 | 37 | 8
10 | [2H]c1ccc2c(N3C[C@@H]4C[C@H](Nc5ccc(C[C@H]6CNCCO6)cc5)CCN4[C@H](C)C3)ccc(C#N)c2n1 [Example 34, 5-[(4R,8R,9aS)-4-methyl-8-[4-[[(2S)-morpholin-2-yl]methyl]anilino]-1,3,4,6,7,8,9,9a-octahydropyrido[1,2-a]pyrazin-2-yl]-2-deuterio-quinoline-8-carbonitrile] | −20 | 3.5 | 2.5
11 | [2H]c1ccc2c(N3C[C@@H]4C[C@H](N5CCN(c6ccncc6)CC5)CCN4[C@H](C)C3)ccc(C#N)c2n1 [Example 37, 5-[(4R,8R,9aS)-4-methyl-8-[4-(4-pyridyl)piperazin-1-yl]-1,3,4,6,7,8,9,9a-octahydropyrido[1,2-a]pyrazin-2-yl]-2-deuterio-quinoline-8-carbonitrile] | 4.5 | 32.5 | 14.5
